These results are taken from publication PMC6773865, “Functional recruitment of dynamin requires multimeric interactions for efficient endocytosis” (Nature Communications, 2019).

In assay [1] the target is T1, GST-amphSH3 (dimeric) (Mus musculus, UniProt Q7TQF7).
T1 construct: murine Ampiphysin1 SH3 domain residues 607–686); made in house; host or cells: E. coli BL21-CodonPlus (DE3)-RIPL
T1 sequence (Q7TQF7 607-686): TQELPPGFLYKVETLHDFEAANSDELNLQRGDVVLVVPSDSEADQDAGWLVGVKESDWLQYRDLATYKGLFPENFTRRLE
As to the kind of experiment: SPR, dimeric GST-amphSH3 on immobilized peptides. The format is binding, murine. The note with it: below 1 µM. For orientation: SPR reads the build-up and loss of mass on a sensor chip optically.

Assay [2] has as its target SH3 domain of amphiphysin (amphSH3). To be noted: read-out: affinity for amphSH3; cited from earlier work. An excerpt: The large GTPase dynamin is essential for vesicle scission[6] and is primarily recruited at the last steps of vesicle formation[4],[7],[8]. Many aspects of the function of this indispensable protein have been deciphered[9] but how its recruitment is regulated in cells is still a matter of debate. In this regard, the C-terminal proline/arginine rich domain of dynamin (dynPRD) is critical. It is a major interaction hub for Src-homology domain 3 (SH3) domain-containing endocytic accessory proteins[10] that bears several class I (RxxPxxP) and class II (PxxPxR) SH3-binding motifs (where P is prolin ...

Assay [3] concerns membrane capacitance of NIH 3T3 cells (balance between exocytosis and endocytosis). As to the kind of experiment: Cell capacitance in whole cell patch-clamp. It is filed as cell-based. The note with it: 10th minute over 1st minute of whole cell recording; peptides 1 mM; paired t-test. The procedure: Cells were patched with pipettes made of borosilicate glass (GC150F, Harvard Apparatus) and pulled with a vertical Narishige puller (World Precision Instruments). The solution contained (in mM): 130–140 KCH3SO3, 1 EGTA, 0.1 CaCl2, 10–20 HEPES, 4 ATP (sodium or magnesium salt), 0.4 Na-GTP (or GTPγS when indicated), 5 phosphocreatine and 3 sodium ascorbate. pH was adjusted to 7.2 using KOH and osmolarity to ~300 mOsm L^−1. Sodium ascorbate was omitted in earlier recordings but was added for better stability. Chloride ions either came from 2 mM KCl, 10 mM NaCl or 4 mM MgCl2 (when Na-ATP was used) in various trials. All salts were purchased from Sigma-Aldrich. Cells were voltage-clamped at −60 mV with an EPC10 amplifier (HEKA) with series resistance and cell capacitance estimation every 4 s in the whole cell mode. The digital triggers of the amplifier were used to drive the electrovalves for pH changes. Cell viability and dialysis efficiency were made sure of by monitoring […] throughout the recording using the Patchmaster software (HEKA): series resistance should remain below 10 MΩ and holding current should remain above −100 pA. If either of these criteria was not respected (except holding current for recordings in GTPγS, see Supplementary Fig. 3D), the recording was not considered for analysis. On a given experimental day at least one control recording (i.e. without any peptide) was performed to ensure recording quality. All these recordings were pooled in the ‘control’ condition (n = 63 on 42 experimental days). […]
Supplementary Figure 5: Characteristics of the whole cell recordings in the different conditions of this study. A, Scheme of the equivalent electrical circuit of a cell recorded in the whole cell configuration. […]
This is likely due to the activation of GTP dependent trimeric G proteins which activate various channels in the presence of GTPγS, thereby increasing the holding current. […] F, Ratios of Cm recorded during the 10 th minute of recording over Cm recorded during the 1st minute. […]
Background: Patch clamp records ionic current or voltage across a cell membrane.

Take “Ac-YPPPQVPSRPNRAPPG-NH2 [D15, reference compound]”: the “binding of GST-amphSH3” value in assay [1] is reported as “no measureable binding”. Moreover, in assay [2], the Kd is 90 µM.
Regarding `CC(=O)N[C@@H](Cc1ccc(O)cc1)C(=O)N[C@@H](CCCCn1cc(CCC(=O)NCCCOCCOCCOCCCNC(=O)CCC(=O)NCCCOCCOCCOCCCNC(=O)CCC(=O)NCCCOCCOCCOCCCNC(=O)CCC(=O)N2CCC[C@H]2C(=O)N2CCC[C@H]2C(=O)N2CCC[C@H]2C(=O)N[C@@H](CCC(N)=O)C(=O)N[C@H](C(=O)N2CCC[C@H]2C(=O)N[C@@H](CO)C(=O)N[C@@H](CCCNC(=N)N)C(=O)N2CCC[C@H]2C(=O)N[C@@H](CC(N)=O)C(=O)N[C@@H](CCCNC(=N)N)C(=O)N[C@@H](C)C(=O)N2CCC[C@H]2C(=O)N2CCC[C@H]2C(=O)NCC(N)=O)C(C)C)nn1)C(=O)NCCCOCCOCCOCCCNC(=O)CCC(=O)NCCCOCCOCCOCCCNC(=O)CCC(=O)NCCCOCCOCCOCCCNC(=O)CCC(=O)N1CCC[C@H]1C(=O)N1CCC[C@H]1C(=O)N1CCC[C@H]1C(=O)N[C@@H](CCC(N)=O)C(=O)N[C@H](C(=O)N1CCC[C@H]1C(=O)N[C@@H](CO)C(=O)N[C@@H](CCCNC(=N)N)C(=O)N1CCC[C@H]1C(=O)N[C@@H](CC(N)=O)C(=O)N[C@@H](CCCNC(=N)N)C(=O)N[C@@H](C)C(=O)N1CCC[C@H]1C(=O)N1CCC[C@H]1C(=O)NCC(N)=O)C(C)C` [dD15-N], the “change of Cm, Cm(10')/Cm(1')” value in assay [3] is on record as “no significant decrease in Cm”.
